Marks after values point to notes of the source that are not given here.
Key:
[1] = system: FeCl3-induced inferior vena cava thrombosis; test: FeCl3-induced inferior vena cava thrombosis in rats; assay type: in vivo, rat
Method: (§1) 160 Rats were randomly divided into groups, 5 to 10 rats per group.
(§2) According to the body weight in kilograms of the rats, the first dose of a drug was dissolved in 2 mL of physiological saline for single bolus injection. The maintaining dose of drug was dissolved in 9 ml of physiological saline, and placed in a double-channel micro-injection pump, which was dripped off within 90 minutes at a dripping speed of 0.1 ml/min. The sham operation group was administered with the same volume of physiological saline.
(§3) The rats were fasted with free access to water overnight before the experiment.
15 minutes later, the filter paper was removed. And then, after observation for 45 minutes, the blood vessels and local tissues were rinsed with warm physiological saline, and the covered blood vessels were cut off. The thrombus which attached to the blood vessel walls was peeled off to be weighed on a tin foil for its wet weight, and then weighed overnight at room temperature for its dry weight. The administration was continued until the completion of the experiment.
After the experiment was completed, the segment of the blood vessels in which there had been thrombus formation was cut off, weighed for the wet weight, and then weighed overnight at room temperature for the dry weight of the thrombus. Thrombosis inhibitory rate was calculated.

[2] = system: femoral arterial and venous bypass thrombosis; test: Femoral arterial and venous bypass thrombosis in rabbits, single intravenous administration; assay type: in vivo, rabbit; settings: 15 min
Method: (§4) 1. Grouping and administration: 48 Rabbits were randomly divided into 6 groups, 8 rabbits per group. 1) Sham operation group (NS): Intravenous injection of the same volume of physiological saline; 2) positive control bivalirudin group (6 mg/kg); 3) positive control enoxaparin group (200 U/kg); 4) Low dose group of polypeptide 2 (3.0 mg/kg); 5) Medium dose group of polypeptide 2 (6.0 mg/kg); 6) High dose group of polypeptide 2 (12.0 mg/kg). Polypeptide 2 was administered by single intravenous administration. According to the body weight in kilograms of the rabbits, the sample was dissolved in 2 mL of physiological saline for single bolus injection. The sham operation group was administered with the same volume of physiological saline.
2.1 Surgery preparation of rabbits: Rabbit were sent to the laboratory for accommodation for one day, and then screened at first. Blood samples were taken from arteries within ears, which were subjected to blood routine analysis and APTT examinations, and the rabbits with a normal blood hemogram and APTT between 16 and 28 seconds were selected for experiments. The rabbits to be tested were fasted with free access to water in the night before the experiment. The rabbits were anesthetized with intravenous injection of 3% sodium pentobarbital solution at 1 ml/kg, fixed in the supine position, and then, the common carotid artery at one side, external jugular vein, femoral artery at one side, femoral vein, and forelimb vein at one side were isolated. The forelimb vein was subjected to intubation for administration; the left femoral vein was subjected to intubation for blood collection to determine the platelet aggregation rate: the femoral artery was used for the establishment of an arterial thrombosis model; the common carotid artery and external jugular vein were used for the establishment of an arterial and venous bypass thrombosis model.
2.2 Arterial and venous bypass thrombosis (AVST) model: An arterial and venous shunt consists of two casings, of which an outer casing has a length of about 8 cm and an inner diameter of 7.9 mm, the inner casing has a length of about 2.5 cm and an inner diameter of 4.8 mm. The polyethylene tube was charged with a silk thread about 8 cm long and filled with […] heparin solution, of which one end was inserted into the left femoral artery and the other end was inserted into the right femoral vein. After administration for 30 seconds, the blood flow was released, which flowed from the left artery to the polyethylene tube and returned to the right vein. After 15 minutes, the blood flow was interrupted, the silk thread was quickly removed and placed on an aluminum foil (size: 2.5 cm×2.5 cm), measured for its wet weight, and kept overnight at room temperature and weighed for its dry weight.
The femoral arteries in the […] and both sides in the rabbits were isolated and stabilized for 10 min before the administration was started. An AT model was established by covering the femoral artery with 50% FeCl3 filter paper while administration, and the filter paper was removed after covering for 15 minutes. An AVST model was established and it was taken out after […]. Observation was continued for 120 min after administration until the experiment was completed.
3.4 Thrombus weight: After the experiment was completed, the segment of the blood vessels in which there had been thrombus formation was cut off, weighed for the wet weight, and then kept overnight at room temperature and weighed for the dry weight. The thrombosis inhibitory rate was calculated with a calculation equation as follows: […]

[3] = system: blood coagulation function; test: APTT in rats, intravenous maintenance administration; assay type: in vivo, rat
Method: as §1, §2, §3
The blood samples were taken before administration, administration for 60 minutes, and before termination of administration, respectively, to determine their activated partial thromboplastin time (APTT) and prothrombin time (PT). The blood samples were centrifuged at 3510 rpm for 8 minutes to obtain platelet poor plasma (PPP). Reagent reconstruction and preservation were performed according to the operation requirements of the kit. Immediately after each blood sample was placed into a test cup and then PT and APTT reagents were added, the test was started. After the test was completed, results were recorded.
5.1 Determination of blood coagulation function: The blood samples were taken 0 min before administration, administration for 60 minutes, and termination of administration, respectively, and then determined using a platelet-aggregation coagulation factor analyzer for the blood coagulation functions (PT. APTT) and ACT.

[4] = system: blood coagulation function; test: PT in rabbits, single intravenous administration; assay type: in vivo, rabbit
Method: as §4
3.2 Determination of blood coagulation function: Blood samples were taken and the blood function (PT, TT, APTT) was determined at 0 min before administration, at points of 5 min and 15 min after administration, using a platelet-aggregation coagulation factor analyzer. Blood samples were centrifuged at 3510 rpm for 8 min to obtain platelet poor plasma (PPP). Reagent reconstruction and preservation were performed according to the operation requirements of the kit. Immediately after each blood sample was placed into a test cup and then added with PT. TT and APTT reagents, the test was started. After the test was completed, results were recorded.

[5] = iv 0.08 + 0.325 (mg/kg + mg/kg/h)
[6] = iv 0.17 + 0.65 (mg/kg + mg/kg/h)
[7] = iv 0.35 + 1.3 (mg/kg + mg/kg/h)
[8] = iv 0.35 + 3.3 (mg/kg + mg/kg/h)
[9] = single iv 6.0 mg/kg, Administration 5 min
[10] = single iv 6.0 mg/kg, Administration 15 min
[11] = single iv 6.0 mg/kg, Administration for 5 min
[12] = single iv 6.0 mg/kg, Administration for 15 min
[13] = single iv 6.0 mg/kg, Before administration
[14] = iv 0.041 + 0.125 (mg/kg + mg/kg/h)
[15] = iv 0.125 + 0.375 (mg/kg + mg/kg/h)
[16] = iv 0.25 + 0.75 (mg/kg + mg/kg/h)
[17] = iv 0.5 + 1.25 (mg/kg + mg/kg/h)
[18] = iv 1.5 + 3.75 (mg/kg + mg/kg/h)

Bivalirudin: Bivalirudin for Injection, Xi'an Xintong Pharmaceutical Research Co., Ltd.; positive control thrombin inhibitor
Inferior vena cava thrombosis Inhibition percentage [1, 5]: 20.03%
Inferior vena cava thrombosis Thrombus weight [1, 5]: 18.03 ± 1.39 mg
Inferior vena cava thrombosis Inhibition percentage [1, 6]: 35.97%
Inferior vena cava thrombosis Thrombus weight [1, 6]: 14.43 ± 3.84 mg
Inferior vena cava thrombosis Inhibition percentage [1, 7]: 68.67%
Inferior vena cava thrombosis Thrombus weight [1, 7]: 7.06 ± 4.07 mg
Inferior vena cava thrombosis Inhibition percentage ([1]; iv 0.5 + 2 (mg/kg + mg/kg/h)): 67.79%
Inferior vena cava thrombosis Thrombus weight ([1]; iv 0.5 + 2 (mg/kg + mg/kg/h)): 7.26 ± 3.15 mg
Thrombus dry weight ([2]; single iv 6.0 mg/kg): 20.8 ± 6.3 mg
Thrombus inhibitory rate ([2]; single iv 6.0 mg/kg): 11.86%
APTT Before administration [3, 5]: 25.05 ± 1.78
APTT Fold of change [3, 5]: 1.36 ± 0.50
APTT administration for 60 minutes [3, 5]: 34.18 ± 12.92
APTT Before administration [3, 6]: 25.55 ± 5.02
APTT Fold of change [3, 6]: 1.66 ± 0.60
APTT administration for 60 minutes [3, 6]: 41.46 ± 14.96
APTT Before administration [3, 8]: 23.16 ± 2.37
APTT Fold of change [3, 8]: 4.10 ± 1.86
APTT administration for 60 minutes [3, 8]: 95.86 ± 45.71
APTT Before administration ([3]; iv 0.5 + 2 (mg/kg + mg/kg/h)): 24.77 ± 7.84
APTT Fold of change ([3]; iv 0.5 + 2 (mg/kg + mg/kg/h)): 3.89 ± 1.37
APTT administration for 60 minutes ([3]; iv 0.5 + 2 (mg/kg + mg/kg/h)): 90.23 ± 21.92
PT fold of prolongation [4, 9]: 3.0 ± 0.5
PT fold of prolongation [4, 10]: 1.6 ± 0.2
PT [4, 11]: 18.8 ± 1.1 S
PT [4, 12]: 10.2 ± 0.7 S
PT [4, 13]: 6.4 ± 0.2 S

D-Phe Pro Arg Pro Gly Gly Gly Gly Asn Gly Asp Phe Glu Glu Ile Pro Glu Glu Tyr Leu Glu Ala Ala Ala Lys Cys Har Gly Asp Trp Pro Cys [Polypeptide 2]
Inferior vena cava thrombosis Inhibition percentage [1, 14]: 10.38%
Inferior vena cava thrombosis Thrombus weight [1, 14]: 20.20 ± 10.00 mg
Inferior vena cava thrombosis Inhibition percentage [1, 15]: 27.99%
Inferior vena cava thrombosis Thrombus weight [1, 15]: 16.23 ± 6.76 mg
Inferior vena cava thrombosis Inhibition percentage [1, 16]: 36.85%
Inferior vena cava thrombosis Thrombus weight [1, 16]: 14.23 ± 4.82 mg
Inferior vena cava thrombosis Inhibition percentage [1, 17]: 58.96%
Inferior vena cava thrombosis Thrombus weight [1, 17]: 9.25 ± 4.86 mg
Inferior vena cava thrombosis Inhibition percentage ([1]; iv 1 + 2.5 (mg/kg + mg/kg/h)): 56.03%
Inferior vena cava thrombosis Thrombus weight ([1]; iv 1 + 2.5 (mg/kg + mg/kg/h)): 9.91 ± 6.20 mg
Inferior vena cava thrombosis Inhibition percentage [1, 18]: 68.37%
Inferior vena cava thrombosis Thrombus weight [1, 18]: 7.13 ± 3.46 mg
Thrombus dry weight ([2]; single iv 3.0 mg/kg): 20.2 ± 4.3 mg
Thrombus inhibitory rate ([2]; single iv 3.0 mg/kg): 14.48%
Thrombus dry weight ([2]; single iv 6.0 mg/kg): 13.5 ± 5.3 mg
Thrombus inhibitory rate ([2]; single iv 6.0 mg/kg): 42.80%
Thrombus dry weight ([2]; single iv 12.0 mg/kg): 10.6 ± 6.8 mg
Thrombus inhibitory rate ([2]; single iv 12.0 mg/kg): 55.24%
APTT Before administration [3, 14]: 24.54 ± 5.09
APTT Fold of change [3, 14]: 1.65 ± 0.84
APTT administration for 60 minutes [3, 14]: 37.29 ± 10.59
APTT Before administration [3, 15]: 24.05 ± 5.44
APTT Fold of change [3, 15]: 1.94 ± 0.68
APTT administration for 60 minutes [3, 15]: 44.55 ± 12.74
APTT Before administration [3, 16]: 24.98 ± 5.11
APTT Fold of change [3, 16]: 2.22 ± 1.12
APTT administration for 60 minutes [3, 16]: 53.13 ± 22.57
APTT Before administration [3, 17]: 22.03 ± 4.70
APTT Fold of change [3, 17]: 2.49 ± 1.38
APTT administration for 60 minutes [3, 17]: 52.29 ± 25.87
APTT Before administration ([3]; iv 1 + 2.5 (mg/kg + mg/kg/h)): 23.98 ± 6.83
APTT Fold of change ([3]; iv 1 + 2.5 (mg/kg + mg/kg/h)): 5.01 ± 3.00
APTT administration for 60 minutes ([3]; iv 1 + 2.5 (mg/kg + mg/kg/h)): 108.52 ± 56.27
APTT Before administration [3, 18]: 23.94 ± 4.49
APTT Fold of change [3, 18]: 3.19 ± 2.02
APTT administration for 60 minutes [3, 18]: 74.62 ± 49.41
PT fold of prolongation ([4]; single iv 3.0 mg/kg, Administration 5 min): 1.5 ± 0.4
PT fold of prolongation ([4]; single iv 3.0 mg/kg, Administration 15 min): 1.2 ± 0.2
PT ([4]; single iv 3.0 mg/kg, Administration for 5 min): 8.9 ± 1.2 S
PT ([4]; single iv 3.0 mg/kg, Administration for 15 min): 7.0 ± 0.8 S
PT ([4]; single iv 3.0 mg/kg, Before administration): 6.0 ± 0.3 S
PT fold of prolongation [4, 9]: 2.0 ± 0.4
PT fold of prolongation [4, 10]: 1.4 ± 0.3
PT [4, 11]: 12.9 ± 1.1*^#¥ S
PT [4, 12]: 8.9 ± 0.7 S
PT [4, 13]: 6.3 ± 0.2 S
PT fold of prolongation ([4]; single iv 12.0 mg/kg, Administration 5 min): 3.0 ± 0.8
PT fold of prolongation ([4]; single iv 12.0 mg/kg, Administration 15 min): 2.0 ± 0.6
PT ([4]; single iv 12.0 mg/kg, Administration for 5 min): 19.2 ± 1.1 *^¥& S
PT ([4]; single iv 12.0 mg/kg, Administration for 15 min): 12.5 ± 0.7 *^¥&@ S
PT ([4]; single iv 12.0 mg/kg, Before administration): 6.5 ± 0.2 S
